One series concerns keratinocytes. The following applies: cited from earlier work.
Series [1] concerns glycosylase type DNA repair enzymes. Kind of series: OLISA biochip: excision of modified DNA bases by nuclear extracts of treated fibroblasts, donor (FHN 1C). The class given is cell-based, human. Here is the method:
(§1) Fibroblasts were obtained from a breast sample from a person and from photo-protected skin of a person.
(§2) Fibroblasts from each of the donors, […] (FHN52) and […] (FHN 1C), were cultured and treated in the exponential growth phase.
(§3) Fibroblasts were treated with ergothioneine (AGI Dermatics, Newport, N.Y., USA) at a non-cytotoxic concentration of 4 mM for 24 hours.
(§4) Treatment of fibroblasts with ascorbic acid 2-glucoside (Siber Hegner, Miribel, France) was carried out at a non-cytotoxic concentration of 50 μM of […] for 24 hours.
(§5) Nuclear extracts were prepared in order to obtain protein solutions containing the repair enzymes of interest.
(§6) Extracts were used at a final concentration of 10 μg/ml.
(§7) OLISA technology (Bonnet-Duquennoy et al., Eur. J. Dermatol., 16, 2, 136-140 2006) was used to measure the excision of nucleic bases modified by glycosylase type DNA repair enzymes.
(§8) The principle (FIG. 1) is described in the publication entitled: “An oligonucleotide micro-array for the monitoring of repair enzyme activity toward different DNA damage”, Sauvaigo et al., Annal. Biochem. (2004); 333: 182-192.
(§9) Labelled oligonucleotide probes immobilised on the support generate synthetic double strand DNA containing in their base sequence, the altered base whose repair activity by cellular enzymes is being studied.
(§10) The probes were determined in order to study enzyme repair typical lesions resulting from exposure to oxidative stress (FIG. 2).
(§11) An OLISA format chip (96-well plate; bioMérieux, Grenoble, France) with 17 spots was functionalised by oligonucleotides containing the various lesions of interest (LAN synthesis, CEA, Grenoble, France).
(§12) Functionalised wells were incubated at 30° C. in the presence of the extract of interest.
(§13) The duration of digestion chosen is 45 minutes for the experiments. Extracts were deposited in four wells.
(§14) Thus for each lesion, the percentage of lesions remaining after the extract activity is determined by calculating the ratio of “extract” well signals with respect to control wells which represent 100% lesions (calculation carried out using the mean of the 8 values obtained).
(§15) Similarly, to determine the effect of each of the 2 active ingredients on specific digestion of extracts, data obtained for each of the lesions were normalised by data obtained with the control oligonucleotide normalised by the control.

Series [2] has as its system mouse skin cells placed in culture. The following applies: cited from earlier work.
For series [3], the system named is glycosylase type DNA repair enzymes. Kind of series: OLISA biochip: excision of modified DNA bases by nuclear extracts of treated fibroblasts, donor (FHN52). The class given is cell-based, human. The following applies: for digestion activity (elimination of modified DNA bases formed as a result of oxidative stress): overall conclusion. How it is done:
as §1, §2, §3, §4, §5, §6, §7, §8, §9, §10, §11, §12, §13, §14, §15

In series [4] the test system is non-specific digestive activity (nuclease) of cell extracts. Kind of series: OLISA biochip: non-specific digestion of control oligonucleotide (no lesion) by extracts of treated fibroblasts. The class given is cell-based, human. The following applies: immediately after treatment, 2 donors. How it is done: as §2, §3, §4, §5, §7
For this study, 2 spots per lesion of interest or control oligonucleotide (without lesion) and 3 spots used to direct the readings were used.
as §12, §13
In order to determine the effect of ergothioneine, on the one hand, and of ascorbic acid 2-glucoside, on the other, on non-specific digestion of extracts, data obtained with the control oligonucleotide normalised by the control were used.
In the same way, an analysis was carried out for each of the 2 donors tested. […]

A further series deals with Fibroblasts. Kind of series: Cytotoxicity of the treatment concentration on fibroblasts. The class given is cell-based, human. The following applies: 4 mM for 24 hours. How it is done: as §3, §4
In the next series the test system is human cell lines. The following applies: cited from earlier work.
Where [5] appears, read: ascorbic acid 2-glucoside 50 μM, 24 hours after treatment.
The mark [6] stands for this setting: ascorbic acid 2-glucoside 50 μM, 24 hours after treatment, donor (FHN 52).
Setting [7] is: ergothioneine 4 mM 24 hours, immediately after treatment.
Where [8] appears, read: ergothioneine 4 mM 24 hours, rinsed, recultured without ergothioneine a further 24 hours, donor (FHN 52).
Where [9] appears, read: ergothioneine 4 mM 24 hours, donor (FHN 52), immediately after treatment.

In the case of `O=C1O[C@H]([C@@H](O)CO)C(O)=C1O[C@H]1O[C@H](CO)[C@@H](O)[C@H](O)[C@H]1O` [ascorbic acid 2-glucoside, 2-O-α-D-Glucopyranosyl L-ascorbic acid], the “protection against cytotoxicity caused by UVB” value in the series on keratinocytes is recorded as “effective agent in protecting keratinocytes”. Moreover, in series [1] (setting [5]), the “residual percentage of 8 oxodG lesion” value was “decreases significantly”, the “residual percentage of formylamine lesion” value is recorded as “decreases significantly”, the “residual percentage of inosine lesion” value was “decreases significantly” and the “residual percentage of uracil lesion” value is “decreases significantly”. In series [2], the “cell DNA fragmentation after damage caused by UVA or UVB” value is “reduction in the cell DNA fragmentation”. In series [3] (setting [6]), the “residual percentage of 8-oxo-dG lesion” value is recorded as “decreases significantly”, the “residual percentage of formylamine lesion” value is recorded as “decreases significantly”, the “residual percentage of inosine lesion” value is “decreases significantly” and the “residual percentage of uracil lesion” value was “decreases significantly”. Moreover, the “digestion activity (elimination of modified DNA bases formed as a result of oxidative stress)” value in series [3] (ascorbic acid 2-glucoside 50 μM, fibroblast extracts of donor) was “significantly increases”. Moreover, in series [4] (ascorbic acid 2-glucoside 50 μM for 24 hours), the “effect on the control oligonucleotide (non-specific digestion)” value is reported as “did not have a significant effect”.
For `C[N+](C)(C)[C@@H](Cc1c[nH]c(=S)[nH]1)C(=O)[O-]` [ergothioneine], in series [1] (setting [7]), the “residual percentage of formylamine lesion” value is reported as “decreases significantly” and the “residual percentage of uracil lesion” value is reported as “decreases significantly”. Also, in series [3] (setting [8]), the “residual percentage of 8-oxo-dG lesion” value is “decreases significantly”, the “residual percentage of HmdU lesion” value is “decreases significantly”, the “residual percentage of ethenoda lesion” value is on record as “decreases significantly” and the “residual percentage of formylamine lesion” value is listed as “decreases significantly”. Also, the “residual percentage of inosine lesion” value in series [3] (setting [8]) was “decreases significantly”. Also, in series [3] (setting [9]), the “residual percentage of formylamine lesion” value is recorded as “decreases significantly”, the “residual percentage of inosine lesion” value was “decreases significantly” and the “residual percentage of uracil lesion” value is listed as “decreases significantly”. Further, the “residual percentage of 8 oxodG lesion” value in series [3] (ergothioneine 4 mM 24 hours, donor (FHN 52), immediately after treatment, normalised to control oligonucleotide) is reported as “decreases significantly”. In addition, the “digestion activity (elimination of modified DNA bases formed as a result of oxidative stress)” value in series [3] (ergothioneine 4 mM, fibroblast extracts) is “significantly increases”. Moreover, the “cytotoxicity at treatment concentration” value in the series on Fibroblasts is “non-cytotoxic”. Moreover, the “effect on the control oligonucleotide (non-specific digestion)” value in series [4] (ergothioneine 4 mM for 24 hours) was “no significant effect”. Besides, in the series on human cell lines, the “DNA oxidation caused by peroxinitrites” value was “inhibits” and the “cell death triggered by hydrogen peroxide” value is on record as “inhibits”.

The values are drawn from patent US20090142285A1, “COSMETIC COMPOSITION COMPRISING ASCORBIC ACID 2-GLUCOSIDE AND ERGOTHIONEINE” (LVMH RECHERCHE, priority 2007, published 2009).
